Assay results taken from US20250326748A1, “COMPOUNDS AND METHODS FOR MODULATING SPLICING” (REMIX THERAPEUTICS INC., priority 2022, published 2025).
Where a name gives a salt, the structure may show the parent alone.

Test system: Target C mRNA
Test: Splicing RT-qPCR panel, Target C canonical junction (CJ) mRNA
Assay type: cell-based, human
Conditions: Homo sapiens, read-out: Target C CJ (decrease in CJ mRNA levels, IC50)
In short: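 A673 cells (DMEM, 10% FBS) or K562 cells (IMDM, 10% FBS) treated 24 h at 37 °C with an 11-point 3-fold dilution, top 10 uM, DMSO ≤0.25%. Canonical-junction mRNA quantified in lysates by RT-qPCR, normalised to GAPDH, GUSB or PPIA and to DMSO (2^−ΔΔCt), then converted to % response.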

IC50	SMILES
< 100 nM	CN[C@@H]1CCN(c2cnc3nc(-c4cc5cn(C)nc5c(C)c4O)cc(Cl)c3c2)C1 [Compound 286, 5-{4-chloro-6-[(3R)-3-(methylamino)pyrrolidin-1-yl]-1,8-naphthyridin-2-yl}-2,7-dimethylindazol-6-ol hydrochloride]
100 to 1000 nM	CN[C@H]1CCN(c2cnc3nc(-c4cc5cn(C)nc5c(C)c4O)cc(Cl)c3c2)C1.Cl [Compound 287]
1000 to 10000 nM	C[C@H]1CN(c2cnc3nc(-c4cc(F)c5nn(C)cc5c4)cc(Cl)c3c2)C[C@@H](C2CC2)N1 [Compound 288]
1000 to 10000 nM	Cc1c(O)c(-c2cc(Cl)c3cc(N(C)[C@@H]4CCNC4)cnc3n2)cc2cn(C)nc12.Cl [Compound 293]
1000 to 10000 nM	Cc1c(O)c(-c2cc(Cl)c3cc(N(C)[C@H]4CCNC4)cnc3n2)cc2cn(C)nc12 [Compound 294]
1000 to 10000 nM	C[C@@H]1CN(c2cnc3nc(-c4cc(F)c5nn(C)cc5c4)cc(Cl)c3c2)CCN1 [Compound 295, 4-chloro-2-(7-fluoro-2-methylindazol-5-yl)-6-[(3R)-3-methylpiperazin-1-yl]-1,8-naphthyridine]
1000 to 10000 nM	C[C@H]1CN(c2cnc3nc(-c4cc(F)c5nn(C)cc5c4)cc(Cl)c3c2)CCN1 [Compound 296]
> 10000 nM	Cc1cn2cc(-c3cc(Cl)c4cc(N5C[C@@H](C)N[C@@H](C)C5)cnc4n3)cc(F)c2n1 [Compound 297]
1000 to 10000 nM	Cc1cn2cc(-c3cc(Cl)c4cc(N5C[C@H](C)N[C@@H](C)C5)cnc4n3)cc(F)c2n1 [Compound 298]
> 10000 nM	Cc1c(O)c(-c2ccc3c(C(F)(F)F)c(N4CCNCC4)cnc3n2)cc2cn(C)nc12 [Compound 302, 2,7-dimethyl-5-[6-(piperazin-1-yl)-5-(trifluoromethyl)-1,8-naphthyridin-2-yl]indazol-6-ol]
> 10000 nM	CN1CCC[C@@H]2CN(c3cnc4nc(-c5cc6cn(C)nc6c(F)c5O)cc(Cl)c4c3)C[C@@H]21 [Compound 303]
> 10000 nM	CN1CCC[C@H]2CN(c3cnc4nc(-c5cc6cn(C)nc6c(F)c5O)cc(Cl)c4c3)C[C@H]21 [Compound 304]
> 10000 nM	C[C@@H]1CN(c2cnc3nc(-c4cc5cn(C)nc5c(F)c4O)cc(C4CC4)c3c2)C[C@H](C)N1 [Compound 305, 5-{4-cyclopropyl-6-[(3R,5S)-3,5-dimethylpiperazin-1-yl]-1,8-naphthyridin-2-yl}-7-fluoro-2-methylindazol-6-ol]
100 to 1000 nM	CCN[C@@H]1CCN(c2cnc3nc(-c4cc5cn(C)nc5cc4O)ccc3c2)C1 [Compound 310, 5-{6-[(3R)-3-(ethylamino)468pyrrolidine-1-yl]-1,8-naphthyridin-2-yl}-2-methylindazol-6-ol hydrochloride]
1000 to 10000 nM	CCN[C@H]1CCN(c2cnc3nc(-c4cc5cn(C)nc5cc4O)ccc3c2)C1 [Compound 311, 5-{6-[(3S)-3-(ethylamino)pyrrolidin-1-yl]-1,8-naphthyridin-2-yl}-2-methylindazol-6-ol hydrochloride]
100 to 1000 nM	Cn1cc2cc(-c3ccc4cc(N5CC[C@@H](NCC6CC6)C5)cnc4n3)c(O)cc2n1 [Compound 313]
1000 to 10000 nM	Cn1cc2cc(-c3ccc4cc(N5CC[C@H](NCC6CC6)C5)cnc4n3)c(O)cc2n1 [Compound 314]

IC50	SMILES
1000 to 10000 nM	CN(C)C1CCN(c2cnc3nc(-c4cc5cn(C)nc5cc4O)ccc3c2)CC1 [Compound 316]
< 100 nM	CCN[C@@H]1CCN(c2cnc3nc(-c4cc5cn(C)nc5cc4O)cc(Cl)c3c2)C1 [Compound 317]
1000 to 10000 nM	CCN[C@H]1CCN(c2cnc3nc(-c4cc5cn(C)nc5cc4O)cc(Cl)c3c2)C1 [Compound 318]
> 10000 nM	C[C@@H]1CN(c2cnc3nc(-c4ccc5nn(C)cc5c4)cc(Cl)c3c2)C[C@H](C)N1 [Compound 320, 4-chloro-6-[(3R,5S)-3,5-dimethylpiperazin-1-yl]-2-(2-methylindazol-5-yl)-1,8-naphthyridine]
> 10000 nM	C[C@@H]1CN(c2cnc3nc(-c4cc(C#N)c5nn(C)cc5c4)cc(Cl)c3c2)C[C@H](C)N1 [Compound 325, 5-(4-chloro-6-((3R,5S)-3,5-dimethylpiperazin-1-yl)-1,8-naphthyridin-2-yl)-2-methyl-2H-indazole-7-carbonitrile 2,2,2-trifluoroacetate]
100 to 1000 nM	Cc1cn2nc(-c3ccc4cc(N5C[C@@H](C)N[C@@H](C)C5)cnc4n3)cc(C)c2n1 [Compound 330]
1000 to 10000 nM	Cc1cn2nc(-c3cc(Cl)c4cc(N5C[C@@H](C)N[C@@H](C)C5)cnc4n3)cc(C)c2n1 [Compound 335, 4-chloro-2-{2,8-dimethylimidazo[1,2-b]478pyridazine-6-yl}-6-[(3R,5S)-3,5-dimethylpiperazin-1-yl]-1,8-naphthyridine]
1000 to 10000 nM	Cc1cn2nc(-c3cc(Cl)c4cc(N5C[C@H](C)N[C@@H](C)C5)cnc4n3)cc(C)c2n1 [Compound 336]
1000 to 10000 nM	CN[C@H]1CCN(c2cnc3nc(-c4cc(C)c5nc(C)cn5n4)cc(Cl)c3c2)C1 [Compound 340]
100 to 1000 nM	CN[C@@H]1CCN(c2cnc3nc(-c4cc(C)c5nc(C)cn5n4)cc(Cl)c3c2)C1 [Compound 341]
1000 to 10000 nM	C[C@@H]1CN(c2cnc3nc(-c4cc5cn(C)nc5cc4O)ccc3c2)C[C@H](C)N1 [Compound 343]
1000 to 10000 nM	Cc1cn2nc(-c3cc(Cl)c4cc(N5CCC(N(C)C)CC5)cnc4n3)cc(C)c2n1 [Compound 348]
100 to 1000 nM	Cc1cn2nc(-c3cc(Cl)c4cc(N5CCC(N6CCC6)CC5)cnc4n3)cc(C)c2n1 [Compound 349]
> 10000 nM	Cc1cn2cc(-c3ccc4cc(N5C[C@@H](C)N[C@@H](C)C5)cnc4n3)cc(F)c2n1 [Compound 350]
1000 to 10000 nM	Cc1c(O)c(-c2cc(Cl)c3cc(N4CCNC5(CC5)C4)cnc3n2)cc2cn(C)nc12 [Compound 381]
1000 to 10000 nM	Cc1cn2nc(-c3ccc4c(Cl)c(N5C[C@H](C)N[C@@H](C)C5)cnc4n3)cc(C)c2n1 [Compound 393, 5-chloro-2-{2,8-dimethylimidazo[1,2-b]pyridazin-6-yl}-6-[(3S,5S)-3,5-dimethylpiperazin-1-yl]-1,8-naphthyridine]
